# In patent publication US10351534B2, “Use of 3-carboxy-N-ethyl-N,N-dimethylpropan-1-aminium salts in the treatment of cardiovascular disease” (JSC GRINDEKS, priority 2011, dated 2019):
# Marks after values point to notes of the source that are not given here.
# What was measured:
# [1] = test system: isolated rat heart; assay: Isolated rat heart infarction study (after p.o. treatment); assay type: in vivo; settings: for Infarct size, % of control: 20 mg/kg p.o. daily, isolated Wistar rat heart, 60 min occlusion, 150-min reperfusion, mean±s.e.m. of 9-10 animals; for decrease of infarct size: 20 mg/kg p.o., isolated rat heart infarction model, versus control
# Experimental: Fifty male, 10 weeks old Wistar rats weighing 200-250 g were housed under standard conditions (21-23° C., 12 h light-dark cycle) with unlimited access to food (R3 diet, Lactamin AB, Sweden) and water.
# Rats were adapted to local conditions for two weeks before the start of treatment. Meldonium dihydrate at a dose of 20 mg/kg, gamma-butyrobetaine at a dose of 20 mg/kg and 3-carboxy-N-ethyl-N,N-dimethylpropan-1-aminium salts at dose of 20 mg/kg were administered p.o. daily for 8 weeks. Control rats received water.
# The isolated rat heart experiment was performed essentially as described earlier (Liepinsh et al., J. Cardiovasc. Pharmacol. 2006; 48(6):314-9). Twenty-four hours after the last drug administration hearts were excised and retrogradely perfused via the aorta at a constant pressure with oxygenated Krebs-Henseleit buffer at 37° C. The heart rate, left ventricle end-diastolic pressure and left ventricle developed pressure were continuously recorded. Coronary flow was measured using an ultrasound flow detector (HSE) and the PowerLab 8/30 system from ADInstruments. The hearts were perfused for 20 min to stabilize the hemodynamic functions and then occlusion was performed for 60 min by constricting threads through a plastic tube. Successful occlusion was confirmed by a coronary flow decrease of about 40 percent. Reperfusion was achieved by releasing the threads. At the end of the 150-min reperfusion period, the risk zone was delineated with 0.1% methylene blue. The hearts were then sectioned transversely from the apex to the base in five slices 2 mm in thickness and incubated in 1% triphenyltetrazolium chloride in phosphate buffer (pH 7.4, 37° C.) for 10 min to stain viable tissue red and necrotic tissue white. Computerized planemetric analysis of Sony A900 photographs was performed using Image-Pro Plus 6.3 software to determine the area at risk and area of necrosis expressed as a % of the left ventricle. The obtained values were then used to calculate the infarct size (IS) as a % of risk area according to the formula: Infarct Size=Area of Necrosis/Area at Risk×100%.
# The anti-infarction effect of examined substances was investigated in an isolated rat heart infarction model. During occlusion of left coronary artery, the coronary flow in all experimental groups was decreased for 40% (from 11 ml/min to 7 ml/min). Moreover, the drop of developed left ventricular pressure for 50% was observed. […] In reperfusion stage, coronary flow, developed left ventricular pressure, ±dp/dt values were recovered till about 80% of control level. There were no significant differences between control and treatment groups.
# [2] = s.c.; cited from earlier work
Compound,"Infarct size, % of control [1]",decrease of infarct size [1] [%],LD50 [2] [mg/kg]
"3-carboxy-N-ethyl-N,N-dimethylpropan-1-aminium 2-(acetyloxy)benzoate","61.6 ± 6.7*^,#,$ % of control",38.4,
"CC[N+](C)(C)CCCC(=O)O.O=C([O-])c1cc(=O)[nH]c(=O)[nH]1 [3-carboxy-N-ethyl-N,N-dimethylpropan-1-aminium 2,6-dioxo-1,2,3,6-tetrahydropyrimidine-4-carboxylate]","60.6 ± 6.7*^,#,$ % of control",39.4,
"CC[N+](C)(C)CCCC(=O)O.O=C([O-])CCC(=O)O [3-carboxy-N-ethyl-N,N-dimethylpropan-1-aminium 3-carboxypropanoate]","62.9 ± 4.7*^,#,$ % of control",37.1,
"CC[N+](C)(C)CCCC(=O)O.O=C([O-])/C=C/C(=O)O [3-carboxy-N-ethyl-N,N-dimethylpropan-1-aminium (2E)-3-carboxyacrylate]","46.5 ± 7.0*^,#,$ % of control",53.5,
"CC[N+](C)(C)CCCC(=O)O [3-carboxy-N-ethyl-N,N-dimethylpropan-1-aminium dihydrogen phosphate]","56.1 ± 4.4*^,#,$ % of control",43.9,
"C[N+](C)(C)CCCC(=O)[O-] [Gamma-butyrobetaine, γ-Butyrobetaine, reference compound]",87.6 ± 11.4 % of control,12.4,> 7000
"C[N+](C)(C)NCCC(=O)[O-] [Meldonium dihydrate, 3-(2,2,2-Trimethylhydrazinium) propionate dihydrate, reference compound]",117.9 ± 7.9 % of control,,
